Test results: US12655116B2, “Substituted isophthalic acid diamides” (Bayer Aktiengesellschaft, priority 2020, dated 2026)

Columns and labels:
ABUTH [1] = experiment: Pre-emergence herbicidal action against ABUTH; type: in vivo, Abutilon theophrasti
Outline: (§1)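 Seeds sown in sandy loam, soil-covered; compound sprayed on soil surface pre-emergence. Application: WP/EC, 600–800 l/ha, 0.2% wetting agent. Readout: visual % damage at 3 weeks.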

ALOMY [2] = experiment: Pre-emergence herbicidal action against ALOMY; type: in vivo, Alopecurus myosuroides; settings: for Pre-emergence action against ALOMY: 20 g/ha, scored visually after 3 weeks, 100% = plants have died, 0% = like control plants
Outline: as §1

AMARE [3] = experiment: Pre-emergence herbicidal action against AMARE; type: in vivo, Amaranthus retroflexus
Outline: as §1

AVEFA = experiment: Pre-emergence herbicidal action against AVEFA; type: in vivo, Avena fatua; settings: 80 g/ha, pre-emergence
Outline: as §1

ECHCG [4] = experiment: Pre-emergence herbicidal action against ECHCG; type: in vivo, Echinochloa crus-galli; settings: 80 g/ha
Outline: as §1

MATIN [5] = experiment: Pre-emergence herbicidal action against MATIN; type: in vivo, Matricaria inodora
Outline: as §1

PHBPU [6] = experiment: Pre-emergence herbicidal action against PHBPU; type: in vivo, Pharbitis purpurea; settings: dosage 80 g/ha
Outline: as §1

POLCO = experiment: Pre-emergence herbicidal action against POLCO; type: in vivo, Polygonum convolvulus
Outline: as §1

SETVI [7] = experiment: Pre-emergence herbicidal action against SETVI; type: in vivo, Setaria viridis
Outline: as §1

VIOTR [8] = experiment: Pre-emergence herbicidal action against VIOTR; type: in vivo, Viola tricolor
Outline: as §1

ABUTH [9] = experiment: Post-emergence herbicidal action against ABUTH; type: in vivo, Abutilon theophrasti; settings: visual assessment about 3 weeks after treatment vs untreated controls
Outline: (§2)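 Sandy loam, greenhouse; treatment 2–3 weeks after sowing, one-leaf stage. Aqueous suspension or emulsion from WP/EC sprayed on foliage (600–800 l/ha, 0.2% wetting agent). Readout: visual % action, ~3 weeks.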

ALOMY [10] = experiment: Post-emergence herbicidal action against ALOMY; type: in vivo, Alopecurus myosuroides; settings: dosage 20 g/ha, visual assessment about 3 weeks after treatment vs untreated controls
Outline: as §2

AMARE [11] = experiment: Post-emergence herbicidal action against AMARE; type: in vivo, Amaranthus retroflexus; settings: 20 g/ha, visual assessment about 3 weeks after treatment, 100% = plants have died, 0% = like control plants
Outline: as §2

ECHCG [12] = experiment: Post-emergence herbicidal action against ECHCG; type: in vivo, Echinochloa crus-galli
Outline: as §2

MATIN [13] = experiment: Post-emergence herbicidal action against MATIN; type: in vivo, Matricaria inodora
Outline: as §2

PHBPU [14] = experiment: Post-emergence herbicidal action against PHBPU; type: in vivo, Pharbitis purpurea
Outline: as §2

SETVI [15] = experiment: Post-emergence herbicidal action against SETVI; type: in vivo, Setaria viridis
Outline: as §2

VERPE [16] = experiment: Post-emergence herbicidal action against VERPE; type: in vivo, Veronica persica
Outline: as §2

VIOTR [17] = experiment: Post-emergence herbicidal action against VIOTR; type: in vivo, Viola tricolor
Outline: as §2

VERPE [18] = experiment: Pre-emergence herbicidal action against VERPE; type: in vivo, Veronica persica
Outline: as §1

DIGSA [19] = experiment: Pre-emergence herbicidal action against DIGSA; type: in vivo, Digitaria sanguinalis; settings: Digitaria sanguinalis, 504 h
Outline: as §1

DIGSA [20] = experiment: Post-emergence herbicidal action against DIGSA; type: in vivo, Digitaria sanguinalis; settings: Digitaria sanguinalis, 504 h
Outline: as §2

[21] = 80 g/ha, scored visually after 3 weeks vs untreated controls (100% = plants have died, 0% = like control plants)
[22] = dosage 20 g/ha, scored visually after 3 weeks vs untreated controls, 100% = plants have died, 0% = like control plants
[23] = 80 g/ha, pre-emergence, scored visually after 3 weeks vs untreated controls (100% = plants have died, 0% = like control plants)
[24] = 20 g/ha, scored visually after 3 weeks vs untreated controls, 100% = plants have died, 0% = like control plants
[25] = Tripleurospermum inodorum, 504 h, dosage 20 g/ha
[26] = Setaria viridis, 504 h, dosage 20 g/ha

## CCc1c(C(=O)Nc2nnnn2C)ccc(C(F)(F)F)c1C(=O)NCC(F)F [Example 1-276]
ABUTH [1]; [21]
  Pre-emergence action against ABUTH (herbicidal activity): 100%
ABUTH [1]; [22]
  Pre-emergence action against ABUTH (herbicidal activity in percent): 100%
ALOMY [2]
  Pre-emergence action against ALOMY: 90%
ALOMY [2]; [23]
  Pre-emergence action against ALOMY (herbicidal activity): 100%
AMARE [3]; [24]
  Pre-emergence action against AMARE in %: 90%
AMARE [3]; [21]
  Pre-emergence action against AMARE in %: 100%
AVEFA
  Pre-emergence action against AVEFA in %: 90%
ECHCG [4]
  Pre-emergence action against ECHCG in %: 100%
MATIN [5]; dosage 20 g/ha
  Pre-emergence action against MATIN in %: 90%
MATIN [5]; dosage 80 g/ha
  Pre-emergence action against MATIN in %: 100%
PHBPU [6]
  Pre-emergence action against PHBPU in %: 90%
POLCO; dosage 20 g/ha
  Pre-emergence action against POLCO in %: 80%
POLCO; dosage 80 g/ha
  Pre-emergence action against POLCO in %: 90%
SETVI [7]; dosage 80 g/ha
  Pre-emergence action against SETVI in %: 100%
VIOTR [8]; dosage 20 g/ha
  Pre-emergence action against VIOTR in %: 80%
VIOTR [8]; dosage 80 g/ha
  Pre-emergence action against VIOTR in %: 100%
ABUTH [9]; dosage 5 g/ha
  Post-emergence action against ABUTH in %: 80%
ABUTH [9]; dosage 20 g/ha
  Post-emergence action against ABUTH in %: 80%
ALOMY [10]
  Post-emergence action against ALOMY in %: 80%
AMARE [11]
  Post-emergence action at 20 g/ha against AMARE in %: 100%
ECHCG [12]; dosage 20 g/ha
  Post-emergence action against ECHCG in %: 80%
MATIN [13]; dosage 20 g/ha
  Post-emergence action against MATIN in %: 80%
PHBPU [14]; dosage 20 g/ha
  Post-emergence action against PHBPU in %: 90%
SETVI [15]; dosage 5 g/ha
  Post-emergence action against SETVI in %: 80%
SETVI [15]; dosage 20 g/ha
  Post-emergence action against SETVI in %: 80%
VERPE [16]; 20 g/ha
  Post-emergence action against VERPE in %: 80%
VIOTR [17]; 20 g/ha
  Post-emergence action against VIOTR in %: 80%

## CCc1c(C(=O)Nc2nnnn2C)ccc(C(F)F)c1C(=O)NC1CC1 [Example 1-279]
ABUTH [1]; Abutilon theophrasti, 504 h, 80 g/ha, scored visually after 3 weeks vs untreated controls (100% = plants have died, 0% = like control plants)
  pest or weed control at 80 g/ha: 100%
ABUTH [1]; Abutilon theophrasti, 504 h, dosage 20 g/ha, scored visually after 3 weeks vs untreated controls, 100% = plants have died, 0% = like control plants, read-out: Pre-emergence action against ABUTH (herbicidal activity in percent)
  pest or weed control at 20 g/ha: 100%
ALOMY [2]; Alopecurus myosuroides, 504 h, 80 g/ha, pre-emergence, scored visually after 3 weeks vs untreated controls (100% = plants have died, 0% = like control plants)
  pest or weed control at 80 g/ha: 80%
AMARE [3]; Amaranthus retroflexus, 504 h, 20 g/ha, scored visually after 3 weeks vs untreated controls, 100% = plants have died, 0% = like control plants
  pest or weed control at 20 g/ha: 100%
AMARE [3]; Amaranthus retroflexus, 504 h, 80 g/ha, scored visually after 3 weeks vs untreated controls, 100% = plants have died, 0% = like control plants
  pest or weed control at 80 g/ha: 100%
AVEFA; Avena fatua, 504 h
  pest or weed control at 80 g/ha: 90%
ECHCG [4]; Echinochloa crus-galli, 504 h
  pest or weed control at 80 g/ha: 100%
MATIN [5]; [25]
  pest or weed control at 20 g/ha: 100%
MATIN [5]; Tripleurospermum inodorum, 504 h, dosage 80 g/ha
  pest or weed control at 80 g/ha: 100%
PHBPU [6]; Ipomoea purpurea, 504 h
  pest or weed control at 80 g/ha: 90%
POLCO; Fallopia convolvulus, 504 h, dosage 20 g/ha
  pest or weed control at 20 g/ha: 80%
POLCO; Fallopia convolvulus, 504 h, dosage 80 g/ha
  pest or weed control at 80 g/ha: 90%
SETVI [7]; [26]
  pest or weed control at 20 g/ha: 80%
SETVI [7]; Setaria viridis, 504 h, dosage 80 g/ha
  pest or weed control at 80 g/ha: 100%
VERPE [18]; Veronica persica, 504 h, dosage 80 g/ha
  pest or weed control at 80 g/ha: 90%
VIOTR [8]; Viola tricolor, 504 h, dosage 20 g/ha
  pest or weed control at 20 g/ha: 100%
VIOTR [8]; Viola tricolor, 504 h, dosage 80 g/ha
  pest or weed control at 80 g/ha: 100%
DIGSA [19]; dosage 20 g/ha
  pest or weed control at 20 g/ha: 100%
DIGSA [19]; dosage 80 g/ha
  pest or weed control at 80 g/ha: 100%
ABUTH [9]; Abutilon theophrasti, 504 h, dosage 5 g/ha
  pest or weed control at 5 g/ha: 80%
ABUTH [9]; Abutilon theophrasti, 504 h, dosage 20 g/ha
  pest or weed control at 20 g/ha: 90%
AMARE [11]; Amaranthus retroflexus, 504 h
  pest or weed control at 20 g/ha: 100%
ECHCG [12]; Echinochloa crus-galli, 504 h, dosage 5 g/ha
  pest or weed control at 5 g/ha: 80%
ECHCG [12]; Echinochloa crus-galli, 504 h, dosage 20 g/ha
  pest or weed control at 20 g/ha: 90%
MATIN [13]; Tripleurospermum inodorum, 504 h, dosage 5 g/ha
  pest or weed control at 5 g/ha: 90%
MATIN [13]; [25]
  pest or weed control at 20 g/ha: 90%
PHBPU [14]; Ipomoea purpurea, 504 h, dosage 5 g/ha
  pest or weed control at 5 g/ha: 90%
PHBPU [14]; Ipomoea purpurea, 504 h, dosage 20 g/ha
  pest or weed control at 20 g/ha: 90%
SETVI [15]; Setaria viridis, 504 h, dosage 5 g/ha
  pest or weed control at 5 g/ha: 90%
SETVI [15]; [26]
  pest or weed control at 20 g/ha: 90%
VERPE [16]; Veronica persica, 504 h, 5 g/ha
  pest or weed control at 5 g/ha: 80%
VERPE [16]; Veronica persica, 504 h, 20 g/ha
  pest or weed control at 20 g/ha: 100%
VIOTR [17]; Viola tricolor, 504 h, 5 g/ha
  pest or weed control at 5 g/ha: 90%
VIOTR [17]; Viola tricolor, 504 h, 20 g/ha
  pest or weed control at 20 g/ha: 90%
DIGSA [20]; 5 g/ha
  pest or weed control at 5 g/ha: 90%
DIGSA [20]; 20 g/ha
  pest or weed control at 20 g/ha: 90%

## CC(NC(=O)c1c(C(F)(F)F)ccc(C(=O)Nc2nnnn2C)c1C1CC1)C1CC1 (centres unmarked) [Example 1-292]
ABUTH [1]; [21]
  Pre-emergence action against ABUTH (herbicidal activity): 100%
ABUTH [1]; [22]
  Pre-emergence action against ABUTH (herbicidal activity in percent): 100%
ALOMY [2]
  Pre-emergence action against ALOMY: 80%
ALOMY [2]; [23]
  Pre-emergence action against ALOMY (herbicidal activity): 90%
AMARE [3]; [24]
  Pre-emergence action against AMARE in %: 100%
AMARE [3]; [21]
  Pre-emergence action against AMARE in %: 100%
ECHCG [4]
  Pre-emergence action against ECHCG in %: 90%
MATIN [5]; dosage 20 g/ha
  Pre-emergence action against MATIN in %: 100%
MATIN [5]; dosage 80 g/ha
  Pre-emergence action against MATIN in %: 100%
PHBPU [6]
  Pre-emergence action against PHBPU in %: 80%
POLCO; dosage 80 g/ha
  Pre-emergence action against POLCO in %: 90%
SETVI [7]; dosage 80 g/ha
  Pre-emergence action against SETVI in %: 100%
VERPE [18]; dosage 20 g/ha
  Pre-emergence action against VERPE in %: 100%
VERPE [18]; dosage 80 g/ha
  Pre-emergence action against VERPE in %: 100%
VIOTR [8]; dosage 20 g/ha
  Pre-emergence action against VIOTR in %: 90%
VIOTR [8]; dosage 80 g/ha
  Pre-emergence action against VIOTR in %: 100%
ABUTH [9]; dosage 20 g/ha
  Post-emergence action against ABUTH in %: 80%
ALOMY [10]
  Post-emergence action against ALOMY in %: 80%
AMARE [11]
  Post-emergence action at 20 g/ha against AMARE in %: 100%
ECHCG [12]; dosage 5 g/ha
  Post-emergence action against ECHCG in %: 80%
ECHCG [12]; dosage 20 g/ha
  Post-emergence action against ECHCG in %: 80%
MATIN [13]; dosage 5 g/ha
  Post-emergence action against MATIN in %: 80%
MATIN [13]; dosage 20 g/ha
  Post-emergence action against MATIN in %: 80%
PHBPU [14]; dosage 5 g/ha
  Post-emergence action against PHBPU in %: 80%
PHBPU [14]; dosage 20 g/ha
  Post-emergence action against PHBPU in %: 80%
SETVI [15]; dosage 20 g/ha
  Post-emergence action against SETVI in %: 90%
VERPE [16]; 5 g/ha
  Post-emergence action against VERPE in %: 80%
VERPE [16]; 20 g/ha
  Post-emergence action against VERPE in %: 90%
VIOTR [17]; 20 g/ha
  Post-emergence action against VIOTR in %: 80%
